Results published in US20160374370A1, “BEVERAGE COMPRISING FERROUS PICOLINATE” (NESTEC S.A., priority 2013, published 2016).

Test: Colour change in iron fortified strawberry fermented milk beverages (CIELAB colorimetry)
Type: physicochemical
Conditions: for ΔEab* on addition / ΔEab* after heat treatment: colour difference vs beverage with no iron salts, approx. 2.1 mg iron per 100 g; for ΔEab* on addition: fermented milk beverage containing 2.1% strawberry, stirred under argon 20 minutes; for ΔEab* after heat treatment: heat treated at 95° C. for 2 minutes, 2.1% strawberry fermented milk beverage
Experimental: Ferrous picolinate was prepared according to the procedure of U.S. Pat. No. 4,315,927 Example 3. A fermented milk beverage containing 2.1% strawberry was iron fortified by the addition of ferrous sulphate (Dr Paul Lohmann™) (Sample A) or ferrous picolinate (Sample B). The amount of the ferrous salts were chosen to provide approximately 2.1 mg iron per 100 g fermented milk beverage. Each ferrous salt was added to the fermented milk beverage and stirred under argon for 20 minutes. A further sample without iron fortification was also prepared in the same manner. Colour measurements were performed in 1×1 cm polystyrene cuvettes using an X-Rite ColorEye 7000A colorimeter. The colorimeter was set up with a D65 light source, 10 degree observer angle and with specular component included. The colour difference between the beverage with no iron salts and the iron fortified beverages was measured for each ferrous salt and expressed as ΔEab* using the CIELAB colour scale.
The fermented milks were then heat treated at 95° C. for 2 minutes. Colour measurements were performed in the same manner as before. The colour difference between the beverage with no iron salts and the iron fortified beverages was measured for each ferrous salt and expressed as ΔEab* using the CIELAB colour scale.

Row | Compound | ΔEab* on addition | ΔEab* after heat treatment | colour compared with the beverage with no added iron (both after simple addition of the salts and after heat treatment, compared with ferrous sulphate)
1 | O=S(=O)([O-])[O-].[Fe+2] [FeSO4 × H20, ferrous sulphate, reference compound] | 0.84 | 2.80 | –
2 | ferrous picolinate | 0.36 | 1.66 | closer in colour to the beverage with no added iron than the beverage fortified with ferrous sulphate
